Results from ChEMBL document CHEMBL1201862, “PubChem BioAssay data set” (2004).
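Briefly, cells in 96-well plates were exposed to five compound concentrations for 48 h, and endpoints were estimated by linear interpolation. GI50 is the concentration that inhibits growth by half.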 Activity calls are given as the source filed them. No stated cut-off is given here; in the data, active = GI50 up to about 1.1 µM and inactive = higher.

Legend:
Assay in all cases: NCI-60 cell line screen, 48 h
HT-29 = tested on: HT-29
SK-MEL-5 = tested on: SK-MEL-5
MCF7 = tested on: MCF7
HCT-116 = tested on: HCT-116
SNB-75 = tested on: SNB-75
786-0 = tested on: 786-0
OVCAR-4 = tested on: OVCAR-4
OVCAR-8 = tested on: OVCAR-8
A498 = tested on: A498
MOLT-4 = tested on: MOLT-4
SK-OV-3 = tested on: SK-OV-3
COLO 205 = tested on: COLO 205
HOP-92 = tested on: HOP-92
CCRF-CEM = tested on: CCRF-CEM
RPMI-8226 = tested on: RPMI-8226
T47D = tested on: T47D
SNB-19 = tested on: SNB-19
EKVX = tested on: EKVX
MDA-N = tested on: MDA-N
SK-MEL-28 = tested on: SK-MEL-28
RXF 393 = tested on: RXF 393
NCI/ADR-RES = tested on: NCI/ADR-RES
IGROV-1 = tested on: IGROV-1
SF-295 = tested on: SF-295
HOP-62 = tested on: HOP-62
Malme-3M = tested on: Malme-3M
CAKI-1 = tested on: CAKI-1
NCI-H23 = tested on: NCI-H23
OVCAR-5 = tested on: OVCAR-5
ACHN = tested on: ACHN
NCI-H460 = tested on: NCI-H460
HL-60 = tested on: HL-60
HCT-15 = tested on: HCT-15
M14 = tested on: M14
K562 = tested on: K562
Hs-578T = tested on: Hs-578T
PC-3 = tested on: PC-3
SW-620 = tested on: SW-620
UO-31 = tested on: UO-31
HCC 2998 = tested on: HCC 2998
SR = tested on: SR
KM12 = tested on: KM12
UACC-257 = tested on: UACC-257
A549 = tested on: A549
TK-10 = tested on: TK-10
SF-268 = tested on: SF-268
U-251 = tested on: U-251
DU-145 = tested on: DU-145
SN12C = tested on: SN12C
OVCAR-3 = tested on: OVCAR-3
MDA-MB-231 = tested on: MDA-MB-231
SF-539 = tested on: SF-539
UACC-62 = tested on: UACC-62
MDA-MB-435 = tested on: MDA-MB-435
NCI-H522 = tested on: NCI-H522
NCI-H226 = tested on: NCI-H226
LOX IMVI = tested on: LOX IMVI
SK-MEL-2 = tested on: SK-MEL-2

C[N+]1(C)CCCC(C#N)(c2ccccc2)CC1 (stereo not drawn)
GI50 (HT-29): > 100 µM (inactive) | GI50 (SK-MEL-5): > 100 µM (inactive) | GI50 (MCF7): > 100 µM (inactive) | GI50 (HCT-116): > 100 µM (inactive) | GI50 (SNB-75): > 100 µM (inactive) | GI50 (786-0): > 100 µM (inactive) | GI50 (OVCAR-4): > 100 µM (inactive) | GI50 (OVCAR-8): > 100 µM (inactive) | GI50 (A498): > 100 µM (inactive) | GI50 (MOLT-4): > 100 µM (inactive) | GI50 (SK-OV-3): > 100 µM (inactive) | GI50 (COLO 205): > 100 µM (inactive) | GI50 (HOP-92): > 100 µM (inactive) | GI50 (CCRF-CEM): > 100 µM (inactive) | GI50 (RPMI-8226): > 100 µM (inactive) | GI50 (T47D): > 100 µM (inactive) | GI50 (SNB-19): > 100 µM (inactive) | GI50 (EKVX): > 100 µM (inactive) | GI50 (MDA-N): > 100 µM (inactive) | GI50 (SK-MEL-28): > 100 µM (inactive) | GI50 (RXF 393): > 100 µM (inactive) | GI50 (NCI/ADR-RES): > 100 µM (inactive) | GI50 (IGROV-1): > 100 µM (inactive) | GI50 (SF-295): > 100 µM (inactive) | GI50 (HOP-62): > 100 µM (inactive) | GI50 (Malme-3M): > 100 µM (inactive) | GI50 (CAKI-1): > 100 µM (inactive) | GI50 (NCI-H23): > 100 µM (inactive) | GI50 (OVCAR-5): > 100 µM (inactive) | GI50 (ACHN): > 100 µM (inactive) | GI50 (NCI-H460): > 100 µM (inactive) | GI50 (HL-60): > 100 µM (inactive) | GI50 (HCT-15): > 100 µM | GI50 (M14): > 100 µM (inactive) | GI50 (K562): > 100 µM (inactive) | GI50 (Hs-578T): > 100 µM (inactive) | GI50 (PC-3): > 100 µM (inactive) | GI50 (SW-620): > 100 µM (inactive) | GI50 (UO-31): > 100 µM (inactive) | GI50 (HCC 2998): > 100 µM (inactive) | GI50 (SR): > 100 µM (inactive) | GI50 (KM12): > 100 µM (inactive) | GI50 (UACC-257): > 100 µM (inactive) | GI50 (A549): > 100 µM (inactive) | GI50 (TK-10): > 100 µM (inactive) | GI50 (SF-268): > 100 µM (inactive) | GI50 (U-251): > 100 µM (inactive) | GI50 (DU-145): > 100 µM (inactive)

O=C(CC(C(=O)c1ccsc1)c1ccccc1)c1cccs1 (stereo not drawn)
GI50 (HT-29): 69.2 µM (inactive) | GI50 (SK-MEL-5): 43.2 µM (inactive) | GI50 (MCF7): 33 µM (inactive) | GI50 (SN12C): > 100 µM (inactive) | GI50 (HCT-116): 44.5 µM (inactive) | GI50 (SNB-75): 72.6 µM (inactive) | GI50 (786-0): > 100 µM (inactive) | GI50 (OVCAR-4): 55 µM (inactive) | GI50 (OVCAR-8): 58.1 µM (inactive) | GI50 (A498): 77.6 µM (inactive) | GI50 (MOLT-4): 49.9 µM (inactive) | GI50 (SK-OV-3): > 100 µM (inactive) | GI50 (COLO 205): > 100 µM (inactive) | GI50 (HOP-92): > 100 µM (inactive) | GI50 (CCRF-CEM): 80.5 µM (inactive) | GI50 (RPMI-8226): > 100 µM (inactive) | GI50 (T47D): 11.8 µM (inactive) | GI50 (OVCAR-3): 96.8 µM (inactive) | GI50 (EKVX): > 100 µM (inactive) | GI50 (MDA-N): 69.2 µM (inactive) | GI50 (SK-MEL-28): > 100 µM (inactive) | GI50 (RXF 393): 59.3 µM (inactive) | GI50 (MDA-MB-231): 22.2 µM (inactive) | GI50 (NCI/ADR-RES): 22.5 µM (inactive) | GI50 (IGROV-1): > 100 µM (inactive) | GI50 (SF-295): 33.3 µM (inactive) | GI50 (HOP-62): > 100 µM (inactive) | GI50 (CAKI-1): > 100 µM (inactive) | GI50 (NCI-H23): 22 µM (inactive) | GI50 (SF-539): > 100 µM (inactive) | GI50 (OVCAR-5): > 100 µM (inactive) | GI50 (UACC-62): 24.8 µM (inactive) | GI50 (ACHN): 67.6 µM (inactive) | GI50 (NCI-H460): 27.1 µM (inactive) | GI50 (HL-60): 41.1 µM (inactive) | GI50 (HCT-15): 56.9 µM | GI50 (M14): 24.8 µM (inactive) | GI50 (K562): > 100 µM (inactive) | GI50 (Hs-578T): 58.7 µM (inactive) | GI50 (MDA-MB-435): 40.6 µM (inactive) | GI50 (SW-620): > 100 µM (inactive) | GI50 (UO-31): 19.6 µM (inactive) | GI50 (HCC 2998): 85.3 µM (inactive) | GI50 (SR): 57.4 µM (inactive) | GI50 (NCI-H522): 41.6 µM (inactive) | GI50 (NCI-H226): > 100 µM (inactive) | GI50 (KM12): 26.8 µM (inactive) | GI50 (UACC-257): 61 µM (inactive) | GI50 (TK-10): > 100 µM (inactive) | GI50 (SF-268): > 100 µM (inactive) | GI50 (U-251): 62.2 µM (inactive) | GI50 (DU-145): > 100 µM (inactive)

CN(Cc1cnc2nc(N)nc(N)c2n1)c1ccc(C(=O)NC(CCC(=O)NCC(P(=O)(O)O)P(=O)(O)O)C(=O)O)cc1 (stereo not drawn)
GI50 (HT-29): 5.27 µM (inactive) | GI50 (SK-MEL-5): 13.3 µM (inactive) | GI50 (SN12C): 7.21 µM (inactive) | GI50 (HCT-116): 0.815 µM (active) | GI50 (SNB-75): 57.3 µM (inactive) | GI50 (786-0): 81.1 µM (inactive) | GI50 (OVCAR-4): 1.64 µM (inactive) | GI50 (OVCAR-8): 7.6 µM (inactive) | GI50 (MOLT-4): 3.18 µM (inactive) | GI50 (SK-OV-3): 15.7 µM (inactive) | GI50 (COLO 205): > 100 µM (inactive) | GI50 (HOP-92): < 0.01 µM (active) | GI50 (T47D): 40 µM (inactive) | GI50 (OVCAR-3): 23 µM (inactive) | GI50 (EKVX): > 100 µM (inactive) | GI50 (MDA-N): 4.97 µM (inactive) | GI50 (LOX IMVI): 2.52 µM (inactive) | GI50 (MDA-MB-231): > 100 µM (inactive) | GI50 (NCI/ADR-RES): 35.5 µM (inactive) | GI50 (IGROV-1): 9.04 µM (inactive) | GI50 (SF-295): 0.706 µM (active) | GI50 (HOP-62): 5.11 µM (inactive) | GI50 (Malme-3M): > 100 µM (inactive) | GI50 (SK-MEL-2): > 100 µM (inactive) | GI50 (UACC-62): 4.41 µM (inactive) | GI50 (ACHN): 3.57 µM (inactive) | GI50 (NCI-H460): 4.4 µM (inactive) | GI50 (HCT-15): 5.94 µM | GI50 (M14): 6.01 µM (inactive) | GI50 (Hs-578T): 37.1 µM (inactive) | GI50 (PC-3): 0.436 µM (active) | GI50 (SW-620): 4.7 µM (inactive) | GI50 (SR): < 0.01 µM (active) | GI50 (NCI-H522): 20.2 µM (inactive) | GI50 (UACC-257): 12.6 µM (inactive) | GI50 (A549): 4.99 µM (inactive) | GI50 (SF-268): 6.11 µM (inactive) | GI50 (DU-145): 7.16 µM (inactive)
